The target of this assay is human Nav1.7 (Homo sapiens (Human), UniProt Q15858). As to the kind of experiment: FLIPR sodium dye assay (CoroNa Green AM Na+ dye, primary fluorescence assay). The format is cell-based. The settings on record: recombinant Nav1.7/HEK293 cells. As for the experimental part:
In vitro assays were performed in a recombinant cell line expressing cDNA encoding the alpha subunit (Nav1.7, SCN9a, PN1, NE) of human Nav1.7 (Accession No. NM_002977). The cell line was provided by investigators at Yale University (Cummins et al, J. Neurosci. 18(23): 9607-9619 (1998)). For dominant selection of the Nav1.7-expressing clones, the expression plasmid co-expressed the neomycin resistance gene. The cell line was constructed in the human embryonic kidney cell line, HEK293, under the influence of the CMV […] promoter, and stable clones were selected using limiting dilution cloning and antibiotic selection using the neomycin analogue, G418. Recombinant beta and gamma subunits were not introduced into this cell line. Additional cell lines expressing recombinant Nav1.7 cloned from other species can also be used, alone or in combination with various beta subunits, gamma subunits or chaperones.
Unless otherwise noted, cell culture reagents were purchased from Mediatech of Herndon, Va. The recombinant Nav1.7/HEK293 cells were routinely cultured in growth medium consisting of Dulbecco's […] essential medium containing 10% fetal bovine serum (FBS, Hyclone, Thermo Fisher Scientific, Logan, Utah), 100 U/mL penicillin, 100 μg/mL streptomycin, 2-4 mM L-glutamine, and […] G418. For natural, non-recombinant cell lines, the selective antibiotic was omitted, and additional media formulations can be applied as needed.
The final buffer consisted of 20 mM Hepes, pH 7.3, 1.261 mM CaCl2, 0.493 mM MgCl2, 0.407 mM Mg(SO)4, 5.33 mM KCl, 0.441 mM KH2PO4, 137 mM NaCl, 0.336 mM Na2HPO4 and […] D-glucose (Hanks et al., Proc. Soc. Exp. Biol. Med. 71:196 (1949)), and the simple formulation was typically the basic buffer throughout the assay (i.e., all wash and addition steps).
The fluorescence indicator used in the primary fluorescence assay was the cell permeant version of CoroNa™ Green (Invitrogen, Molecular Probes, Eugene, Oreg.), a dye that emits light in the fluorescence range (Harootunian et al., J. Biol. Chem. 264(32):19458-19467 (1989)). The intensity of this emission, but not the wavelength range, is increased when the dye is exposed to Na^+ ions, which it can bind with partial selectivity. Cells expressing Nav1.7 or other sodium channels were loaded with the CoroNa™ Green dye immediately in advance of the fluorescence assay, and then, after agonist stimulation, the mobilization of Na^+ ions was detected as the Na^+ ions flowed from the extracellular fluid into the cytoplasm through the activated sodium channel pores. The dye was stored in the dark as a lyophilized powder, and then an aliquot was dissolved immediately before the cell loading procedure, according to the instructions of the manufacturer, to a stock concentration of 10 mM in DMSO. It was then diluted in the assay buffer to a 4× concentrated working solution, so that the final concentration of dye in the cell loading buffer was 5 μM.
In the fluorescence assays, two agonists were used in combination, namely 1) veratridine; and 2) the venom from the yellow scorpion, Leiurus quinquestriatus hebraeus. Veratridine is an alkaloid small molecule that facilitates the capture of channel openings by inhibiting inactivation, and the scorpion venom is a natural preparation that includes peptide toxins selective for different subsets of voltage-gated sodium channels. These scorpion toxins inhibit the fast inactivation of their cognate target channels. Stock solutions of the agonists were prepared to 40 mM in DMSO (veratridine) and 1 mg/mL in dH2O (scorpion venom), and then diluted to make a 4× or 2× stock (depending on the particular assay) in assay buffer, the final concentration being 100 μM (veratridine) and 10 μg/mL (scorpion venom). Both of the agonists were purchased from Sigma Aldrich, St. Louis, Mo.
Test compounds were dissolved in DMSO to yield 10 mM stock solutions. […]
Sequence of human Nav1.7 (Q15858 other isoform, or with tags, fused parts or gaps): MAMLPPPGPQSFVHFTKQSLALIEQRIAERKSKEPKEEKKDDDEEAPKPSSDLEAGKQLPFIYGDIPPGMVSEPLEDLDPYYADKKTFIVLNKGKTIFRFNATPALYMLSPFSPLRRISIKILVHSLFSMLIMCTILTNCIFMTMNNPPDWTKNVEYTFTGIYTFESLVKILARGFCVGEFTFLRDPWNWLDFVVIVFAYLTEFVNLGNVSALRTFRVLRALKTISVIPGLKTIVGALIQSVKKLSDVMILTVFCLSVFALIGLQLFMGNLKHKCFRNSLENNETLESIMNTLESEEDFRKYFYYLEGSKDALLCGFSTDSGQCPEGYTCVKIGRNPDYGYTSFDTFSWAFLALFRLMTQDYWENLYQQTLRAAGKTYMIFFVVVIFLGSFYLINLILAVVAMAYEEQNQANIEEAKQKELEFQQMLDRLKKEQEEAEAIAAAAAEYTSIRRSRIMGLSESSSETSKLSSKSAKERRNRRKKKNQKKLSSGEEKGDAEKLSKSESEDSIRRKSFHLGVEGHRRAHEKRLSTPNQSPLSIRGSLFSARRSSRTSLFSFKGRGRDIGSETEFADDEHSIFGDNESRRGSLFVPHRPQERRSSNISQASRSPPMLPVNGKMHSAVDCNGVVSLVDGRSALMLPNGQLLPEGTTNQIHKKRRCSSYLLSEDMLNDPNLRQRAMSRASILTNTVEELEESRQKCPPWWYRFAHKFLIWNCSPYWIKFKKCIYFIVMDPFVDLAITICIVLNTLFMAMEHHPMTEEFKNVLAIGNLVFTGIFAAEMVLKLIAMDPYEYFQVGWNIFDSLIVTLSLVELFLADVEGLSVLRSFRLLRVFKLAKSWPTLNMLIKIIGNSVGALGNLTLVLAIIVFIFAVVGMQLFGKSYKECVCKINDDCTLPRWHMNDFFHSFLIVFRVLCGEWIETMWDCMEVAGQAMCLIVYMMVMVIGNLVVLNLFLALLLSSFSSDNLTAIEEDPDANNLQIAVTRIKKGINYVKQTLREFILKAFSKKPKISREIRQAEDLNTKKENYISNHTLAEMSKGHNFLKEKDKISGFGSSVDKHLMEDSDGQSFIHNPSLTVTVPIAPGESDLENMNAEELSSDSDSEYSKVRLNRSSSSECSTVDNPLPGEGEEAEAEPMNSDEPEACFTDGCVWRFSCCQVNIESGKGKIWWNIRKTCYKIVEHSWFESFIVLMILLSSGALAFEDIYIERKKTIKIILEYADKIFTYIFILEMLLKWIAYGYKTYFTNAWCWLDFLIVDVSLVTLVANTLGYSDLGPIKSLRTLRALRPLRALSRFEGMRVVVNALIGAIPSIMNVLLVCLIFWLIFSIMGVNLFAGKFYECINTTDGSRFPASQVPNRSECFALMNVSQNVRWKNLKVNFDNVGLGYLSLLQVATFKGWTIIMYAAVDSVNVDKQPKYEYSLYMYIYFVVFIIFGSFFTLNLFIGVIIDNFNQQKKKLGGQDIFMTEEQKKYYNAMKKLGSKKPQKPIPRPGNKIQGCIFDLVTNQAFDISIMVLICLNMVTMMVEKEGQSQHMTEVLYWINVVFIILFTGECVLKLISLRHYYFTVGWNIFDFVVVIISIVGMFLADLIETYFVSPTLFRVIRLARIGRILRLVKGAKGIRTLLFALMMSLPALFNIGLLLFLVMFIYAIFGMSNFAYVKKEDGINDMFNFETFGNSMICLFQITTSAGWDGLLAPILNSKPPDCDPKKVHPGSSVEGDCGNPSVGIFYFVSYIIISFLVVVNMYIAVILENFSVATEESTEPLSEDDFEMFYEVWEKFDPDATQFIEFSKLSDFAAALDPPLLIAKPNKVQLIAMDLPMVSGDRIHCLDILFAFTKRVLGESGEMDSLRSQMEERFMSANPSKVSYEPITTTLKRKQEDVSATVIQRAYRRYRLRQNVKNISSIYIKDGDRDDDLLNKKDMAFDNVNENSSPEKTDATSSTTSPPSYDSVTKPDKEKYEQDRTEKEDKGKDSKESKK
With `NC(=O)c1cccc(-c2ccc(Oc3ccc(C(F)(F)F)cc3CN3CCC(N)C3)cc2)n1` (stereo not drawn) [compound 60, 6-(4-(2-((3-aminopyrrolidin-1-yl)methyl)-4-(trifluoromethyl)-phenoxy)phenyl)picolinamide], the IC50 – broadly, the point on the concentration scale where inhibition reaches its midpoint – turned out to be 1.85 ± 0.361 µM.

Regarding `NC(=O)c1cccc(-c2ccc(Oc3ccc(C(F)(F)F)cc3CNC3CCNC3)cc2)n1` (stereo not drawn) [compound 61, 6-(4-(2-((pyrrolidin-3-ylamino)methyl)-4-(trifluoromethyl)phenoxy)phenyl) picolinamide], the half-inhibitory concentration (IC50) turned out to be 2.04 ± 0.06 µM.

As for `NC(=O)c1cccc(-c2ccc(Oc3ccc(C(F)(F)F)c(CN4CC(N)C4)c3)cc2)n1` [compound 62, 6-(4-(3-((3-aminoazetidin-1-yl)methyl)-4-(trifluoromethyl)phenoxy)phenyl) picolinamide], the IC50 is 0.31 ± 0.066 µM.

As for `NC(=O)c1cccc(-c2ccc(Oc3ccc(C(F)(F)F)cc3C(O)C[N+](=O)[O-])cc2)n1` (stereo not drawn) [compound 63, 6-(4-(2-(1-hydroxy-2-nitroethyl)-4-(trifluoromethyl)phenoxy)-phenyl)picolinamide], the IC50 worked out at 0.337 ± 0.056 µM.

On to `NCC(O)c1cc(C(F)(F)F)ccc1Oc1ccc(-c2cccc(C(N)=O)n2)cc1` (stereo not drawn) [compound 64, 6-(4-(2-(2-amino-1-hydroxy-ethyl)-4-(trifluoromethyl)-phenoxy)phenyl)picolinamide], for which the IC50 turned out to be 2.14 ± 0.199 µM.

In the case of `NCc1cc(C(F)(F)F)ccc1Oc1ccc(-c2cccc(C(N)=O)n2)cc1` [compound 65, 6-(4-(2-(aminomethyl)-4-(trifluoromethyl)phenoxy)phenyl) picolinamide], the IC50 came out at 0.862 ± 0.012 µM.

On to `O=C1CN(Cc2cc(C(F)(F)F)ccc2Oc2ccc(-c3cccc([C@H](O)CO)n3)cc2)CCN1` [compound 74, (S)-4-(2-(4-(6-(1,2-dihydroxyethyl)pyridin-2-yl)phenoxy)-5-(trifluoro-methyl)benzyl)piperazin-2-one], for which the IC50 was determined as 0.672 ± 0.059 µM.

On to `OC[C@@H](O)c1cccc(-c2ccc(Oc3ccc(C(F)(F)F)cc3CN3CC[C@H](O)C3)cc2)n1` [compound 75, (S)-1-(6-(4-(2-(((S)-3-hydroxypyrrolidin-1-yl)methyl)-4-(trifluoromethyl)phenoxy)-phenyl)pyridin-2-yl)ethane-1,2-diol], for which the IC50 is 0.972 ± 0.114 µM.

Regarding `NC(=O)c1cccc(-c2ccc(Oc3ccc(C(F)(F)F)cc3[C@@H](O)CO)cc2)n1` [compound 77, (R)-6-(4-(2-(1,2-dihydroxyethyl)-4-(trifluoromethyl)-phenoxy)phenyl)picolinamide], the IC50 is 2.45 ± 0.344 µM.

In the case of `NC(=O)c1cccc(-c2ccc(Oc3ccc(C(F)(F)F)cc3C(O)CN3CCNC(=O)C3)cc2)n1` (stereo not drawn) [compound 79, 6-(4-(2-(1-hydroxy-2-(3-oxopiperazin-1-yl)ethyl)-4-(trifluoromethyl)phenoxy)phenyl) picolinamide], the half-inhibitory concentration (IC50) is over 20 µM.

In the case of `NC(=O)c1cccc(-c2ccc(Oc3ccc(C(F)(F)F)cc3C(C(N)=O)N3CCCC3)cc2)n1` (stereo not drawn) [compound 81, 6-(4-(2-(2-amino-2-oxo-1-(pyrrolidin-1-yl)ethyl)-4-(trifluoromethyl)phenoxy)phenyl) picolinamide], the 50% inhibitory concentration (IC50) is 0.71 ± 0.0008 µM.

Turning to `NC(=O)c1cccc(-c2ccc(Oc3ccc(C(F)(F)F)cc3C(C(N)=O)N3CCCCC3)cc2)n1` (stereo not drawn) [compound 82, 6-(4-(2-(2-amino-2-oxo-1-(piperidin-1-yl)ethyl)-4-(trifluoromethyl)phenoxy)phenyl) picolinamide], the IC50 was 2.72 ± 0.264 µM.

With `CCCNC(C(N)=O)c1cc(C(F)(F)F)ccc1Oc1ccc(-c2cccc(C(N)=O)n2)cc1` (stereo not drawn) [compound 83, 6-(4-(2-(2-amino-2-oxo-1-(propylamino)ethyl)-4-(trifluoromethyl)phenoxy)phenyl) picolinamide], the IC50 stood at 6.05 ± 1.33 µM.

On to `CN(C)C(C(N)=O)c1cc(C(F)(F)F)ccc1Oc1ccc(-c2cccc(C(N)=O)n2)cc1` (stereo not drawn) [compound 84, 6-(4-(2-(2-amino-1-(dimethylamino)-2-oxoethyl)-4-(trifluoromethyl)phenoxy)phenyl) picolinamide], for which the 50% inhibitory concentration (IC50) was 10 to 20 µM.

On to `CCN(CC)C(C(N)=O)c1cc(C(F)(F)F)ccc1Oc1ccc(-c2cccc(C(N)=O)n2)cc1` (stereo not drawn) [compound 85, 6-(4-(2-(2-amino-1-(diethylamino)-2-oxoethyl)-4-(trifluoromethyl)phenoxy)phenyl) picolinamide], for which the concentration for half-maximal inhibition (IC50) is 0.561 ± 0.024 µM.

`NC(=O)c1cccc(-c2ccc(Oc3ccc(F)cc3)cc2Cl)n1` [compound 86, 6-(2-chloro-4-(4-fluorophenoxy)-phenyl)picolinamide]: the IC50 worked out at 0.49 ± 0.041 µM.

For the molecule `NC(=O)c1cccc(-c2ccc(Oc3ccc(F)cc3)c(Cl)c2)n1` [compound 87, 6-(3-chloro-4-(4-fluorophenoxy)-phenyl)picolinamide], the IC50 was 0.128 ± 0.03 µM.

As for `N#Cc1cc(-c2cccc(C(N)=O)n2)ccc1Oc1ccc(F)cc1` [compound 89], the IC50 is over 20 µM.

Turning to `NC(=O)c1cccc(-c2ccc(Oc3ccc(F)cc3)c(C(F)(F)F)c2)n1` [compound 90, 6-(4-(4-fluorophenoxy)-3-(trifluoromethyl)phenyl)picolin-amide], the IC50 was over 20 µM.

For `NC(=O)c1cccc(-c2ccc(Oc3ccc(F)cc3)cc2C(F)(F)F)n1` [compound 91, 6-(4-(4-fluorophenoxy)-2-(trifluoromethyl)phenyl)picolin-amide], the IC50 came to 0.577 ± 0.056 µM.

For `CN(c1ccccc1)c1cc(-c2cccc(C(N)=O)n2)ccc1Oc1ccc(F)cc1` [compound 92, 6-(4-(4-fluorophenoxy)-3-(methyl(phenyl)amino)phenyl) picolinamide], the half-maximal inhibitory concentration (IC50) was over 20 µM.

Turning to `CN(Cc1cc(-c2cccc(C(N)=O)n2)ccc1Oc1ccc(F)cc1)c1ccc(C(=O)O)cc1` [compound 93, 4-((5-(6-carbamoylpyridin-2-yl)-2-(4-fluorophenoxy)benzyl)-(methyl)amino)benzoic acid], the IC50 is over 20 µM.

Turning to `NC(=O)c1cccc(-c2ccc(Oc3ccc(F)cc3)c(COc3ccc(Cl)cc3I)c2)n1` [compound 94, 6-(3-((4-chloro-2-iodophenoxy)methyl)-4-(4-fluorophenoxy)phenyl) picolinamide], the IC50 was over 20 µM.

As for `CCN(CC)Cc1cc(-c2cccc(C(N)=O)n2)ccc1Oc1ccc(F)cc1` [compound 95, 6-(3-((diethylamino)methyl)-4-(4-fluorophenoxy)phenyl) picolinamide], the IC50 amounted to 1.33 ± 0.209 µM.

For `CCOCc1cc(-c2cccc(C(N)=O)n2)ccc1Oc1ccc(F)cc1` [compound 96, 6-(3-(ethoxymethyl)-4-(4-fluorophenoxy)phenyl) picolinamide], the IC50 worked out at 1.13 ± 0.11 µM.

Take `NC(=O)c1cccc(-c2ccc(Oc3ccc(F)cc3)c(CN3CCCC3)c2)n1` [compound 97, 6-(4-(4-fluorophenoxy)-3-(pyrrolidin-1-ylmethyl)phenyl)-picolinamide]: the IC50 came to 4.24 ± 0.919 µM.

Turning to `NC(=O)c1cccc(-c2ccc(Oc3ccc(F)cc3)c(CN3CCOCC3)c2)n1` [compound 98, 6-(4-(4-fluorophenoxy)-3-(morpholinomethyl)phenyl)picolin-amide], the IC50 worked out at 0.961 ± 0.07 µM.

For the molecule `NC(=O)c1cccc(-c2ccc(Oc3ccc(F)cc3)cc2F)n1` [compound 99, 6-(2-fluoro-4-(4-fluorophenoxy)-phenyl)picolinamide], the IC50 is 0.55 ± 0.057 µM.

As to `NC(=O)c1cccc(-c2ccc(Oc3ccc(F)cc3)c(-c3ccc(Cl)cc3)c2)n1` [compound 100, 6-(4′-chloro-6-(4-fluorophenoxy)-[1,1′-biphenyl]-3-yl)picolinamide], the IC50 is 0.276 ± 0.063 µM.

For the molecule `NC(=O)c1cccc(-c2ccc(Oc3ccc(F)cc3)c(-c3nn[nH]n3)c2)n1` [compound 101, 6-(4-(4-fluorophenoxy)-3-(2H-tetrazol-5-yl)phenyl)picolinamide], the IC50 worked out at 1.83 ± 0.383 µM.
